Experimental data reported in article PMC8607422, “Development of a novel TLR8 agonist for cancer immunotherapy” (Molecular Biomedicine, 2020).

Key:
serum cytokines = assay: In vivo cytokine induction in monkeys; design: species or system cynomolgus monkeys; conditions: monkey, 1 mg/kg sc single dose
Experimental: Cynomolgus monkeys were purchased from Guangxi Xiongsen Primate Laboratory Animals Co., Ltd. (Guangxi, China) and three 3–4 years old male monkeys were used in each group. […] A single dose of motolimod was sc administered at 1 mg/kg. Blood samples were collected pre-dose, 6 and 24 h post-dose. Levels of cytokines including IFN-γ, IL-10, IL-1β, IL-6, IL-8, MIP-1α, MIP-1β, G-CSF, IL-12p40, IL-12p70 and TNF-α were measured using MSD ECL cytokine assay kit following the manufacturer’s protocol.

in vivo = assay: in vivo; design: species or system Sprague Dawley rats; conditions: Sprague Dawley, rat
Experimental: To determine the in vivo pharmacokinetic profiles, the compounds were formulated with 11% captisol and then administered iv, ip, sc and po into Sprague Dawley rats or iv and sc into mice or cynomolgus monkeys, respectively. Blood samples were collected before dosing and 0.083 h, 0.25 h, 0.5 h, 1 h, 2 h, 4 h, 6 h, 8 h, 12 h and 24 h after dosing. Blood samples were collected in tubes containing K2EDTA. Plasma was isolated from the blood samples by centrifugation of the blood samples at 2400 × g for 5 min at 4°C. Plasma samples were measured using LC-MS/MS (Waters ACQUITY UPLC and TQ 6500+) to determine the concentration of compounds. The data was analyzed using WinNonlin 7.0 to calculate the PK parameters such as AUC0-t, AUC0-∞, MRT0-∞, Cmax, Tmax, t1/2 and F.

hERG = molecular target: T1, hERG (Homo sapiens, UniProt Q12809); assay: hERG assay, whole-cell recordings with automated QPatch in CHO cells; assay type: cell-based
T1 construct: expressed in transfected cells; host or cells: CHO
Experimental: hERG assay was conducted using CHO cell line stably transduced with hERG cDNA. Whole-cell recordings were performed using automated QPatch (Sophion Biosciences). Data were analyzed using Assay Software provided by Sophion (assay software V5.0), Microsoft Excel and GraphPad Prism.

T1 sequence (Q12809 whole entry): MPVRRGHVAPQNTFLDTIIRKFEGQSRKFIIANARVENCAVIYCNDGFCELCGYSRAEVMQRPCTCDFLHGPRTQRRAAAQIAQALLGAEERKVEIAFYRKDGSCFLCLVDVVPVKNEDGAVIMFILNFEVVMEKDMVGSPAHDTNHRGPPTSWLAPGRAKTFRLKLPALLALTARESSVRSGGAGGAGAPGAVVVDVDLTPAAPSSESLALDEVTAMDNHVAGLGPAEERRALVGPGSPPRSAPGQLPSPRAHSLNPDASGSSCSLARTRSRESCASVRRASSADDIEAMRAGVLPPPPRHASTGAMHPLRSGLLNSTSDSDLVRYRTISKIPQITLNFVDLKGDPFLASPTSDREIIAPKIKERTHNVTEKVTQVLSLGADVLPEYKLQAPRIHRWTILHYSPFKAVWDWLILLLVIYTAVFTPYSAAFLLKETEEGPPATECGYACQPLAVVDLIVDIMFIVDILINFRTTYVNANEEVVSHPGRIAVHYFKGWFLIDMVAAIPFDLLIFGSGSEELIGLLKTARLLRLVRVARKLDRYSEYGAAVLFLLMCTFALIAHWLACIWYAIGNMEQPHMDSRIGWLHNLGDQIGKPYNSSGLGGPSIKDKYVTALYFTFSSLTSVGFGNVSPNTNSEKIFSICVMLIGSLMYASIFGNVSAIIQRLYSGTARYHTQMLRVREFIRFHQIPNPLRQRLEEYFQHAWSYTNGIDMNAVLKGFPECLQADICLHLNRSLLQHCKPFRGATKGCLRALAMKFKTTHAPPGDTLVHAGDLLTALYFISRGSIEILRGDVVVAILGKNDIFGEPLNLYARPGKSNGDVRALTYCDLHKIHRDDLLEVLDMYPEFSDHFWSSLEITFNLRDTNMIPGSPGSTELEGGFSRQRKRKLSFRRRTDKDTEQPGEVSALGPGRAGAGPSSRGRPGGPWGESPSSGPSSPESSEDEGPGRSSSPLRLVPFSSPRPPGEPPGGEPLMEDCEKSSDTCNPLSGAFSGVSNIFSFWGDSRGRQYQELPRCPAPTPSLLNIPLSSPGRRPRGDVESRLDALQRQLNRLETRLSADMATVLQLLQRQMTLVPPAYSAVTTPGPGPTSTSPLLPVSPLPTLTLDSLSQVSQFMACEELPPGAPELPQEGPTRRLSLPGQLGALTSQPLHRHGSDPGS

CCCN(CCC)C(=O)C1=Cc2ccc(-c3ccc(C(=O)N4CCCC4)cc3)cc2N=C(N)C1 [Motolimod, motolimod]
serum G-CSF, Mean Values (serum cytokines; 0 h (pre-dose)): 7.135 pg/mL | serum IFN-γ, Mean Values (serum cytokines; 0 h (pre-dose)): 1.017 pg/mL | serum IL-1β, Mean Values (serum cytokines; 0 h (pre-dose)): 0.000 pg/mL | serum IL-6, Mean Values (serum cytokines; 0 h (pre-dose)): 1.510 pg/mL | serum IL-8, Mean Values (serum cytokines; 0 h (pre-dose)): 0.000 pg/mL | serum IL-10, Mean Values (serum cytokines; 0 h (pre-dose)): 0.271 pg/mL | serum IL-12p40, Mean Values (serum cytokines; 0 h (pre-dose)): 131.413 pg/mL | serum IL-12p70, Mean Values (serum cytokines; 0 h (pre-dose)): 2.582 pg/mL | serum MIP-1α, Mean Values (serum cytokines; 0 h (pre-dose)): 71.636 pg/mL | serum MIP-1β, Mean Values (serum cytokines; 0 h (pre-dose)): 93.266 pg/mL | serum G-CSF, Mean Values (serum cytokines; 6 h): 345.154 pg/mL | serum IFN-γ, Mean Values (serum cytokines; 6 h): 0.500 pg/mL | serum IL-1β, Mean Values (serum cytokines; 6 h): 0.286 pg/mL | serum IL-6, Mean Values (serum cytokines; 6 h): 342.661 pg/mL | serum IL-8, Mean Values (serum cytokines; 6 h): 0.378 pg/mL | serum IL-10, Mean Values (serum cytokines; 6 h): 15.222 pg/mL | serum IL-12p40, Mean Values (serum cytokines; 6 h): 305.212 pg/mL | serum IL-12p70, Mean Values (serum cytokines; 6 h): 5.154 pg/mL | serum MIP-1α, Mean Values (serum cytokines; 6 h): 227.638 pg/mL | serum MIP-1β, Mean Values (serum cytokines; 6 h): 1655.094 pg/mL | serum G-CSF, Mean Values (serum cytokines; 24 h): 32.168 pg/mL | serum IFN-γ, Mean Values (serum cytokines; 24 h): 0.462 pg/mL | serum IL-1β, Mean Values (serum cytokines; 24 h): 0.099 pg/mL | serum IL-6, Mean Values (serum cytokines; 24 h): 12.185 pg/mL | serum IL-8, Mean Values (serum cytokines; 24 h): 0.119 pg/mL | serum IL-10, Mean Values (serum cytokines; 24 h): 1.347 pg/mL | serum IL-12p40, Mean Values (serum cytokines; 24 h): 118.409 pg/mL | serum IL-12p70, Mean Values (serum cytokines; 24 h): 3.305 pg/mL | serum MIP-1α, Mean Values (serum cytokines; 24 h): 87.417 pg/mL | serum MIP-1β, Mean Values (serum cytokines; 24 h): 221.881 pg/mL | bioavailability (in vivo): 57.4% | Vd (in vivo; iv, 2.5 mg/kg): 18.6 L/kg | clearance (in vivo; iv, 2.5 mg/kg): 45.5 mL/min/kg | AUC(0-inf) (in vivo; sc, 10 mg/kg): 2130 ng·h/mL | AUC(0-t) (in vivo; sc, 10 mg/kg): 2130 ng·h/mL | Cmax (in vivo; sc, 10 mg/kg): 720 ng/mL | Tmax (in vivo; sc, 10 mg/kg): 1.17 h | half-life (in vivo; sc, 10 mg/kg): 0.92 h | IC50 (hERG): 3.84 µM
